Patent publication US9914722B2, “Compounds for treating spinal muscular atrophy” (PTC Therapeutics Inc., priority 2012, dated 2018)

What was measured:
[1] = test system: full length SMN2 minigene mRNA containing SMN2 exon 7 (SMN2-A minigene); experiment: SMN2 minigene mRNA splicing RT-qPCR assay in cultured cells; assay type: cell-based, human; settings: Homo sapiens, HEK293-H; HEK293H cells stably transfected with SMN2-A minigene, 24 hours, 7-point concentration curve; concentration giving 1.5-fold SMN2 full length mRNA vs vehicle; read-out: EC1.5x for production of full length SMN2 mRNA
How it was run: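 HEK293H cells stably carrying the SMN2-A minigene were treated 24 h at 37 °C with a 7-point, 3.16-fold test compound series, in duplicate. Multiplex RT-qPCR measured exon 7-containing minigene FL mRNA, normalized to GAPDH and expressed relative to vehicle; EC1.5x is the concentration giving 1.5-fold FL mRNA.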

Smn protein = Smn protein assay (Smn HTRF) in cultured cells; assay type: cell-based, human; settings: Homo sapiens, Fibroblast, GM03813 SMA Type 1 patient fibroblasts, 48 hours, HTRF; for maximal fold induction: 7-point concentration data, relative to vehicle, read-out: maximum fold (Fold) increase of Smn protein; for EC (1.5-fold): concentration producing 1.5 times Smn protein vs DMSO vehicle, read-out: EC1.5x for Smn protein expression
How it was run: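 SMA patient fibroblasts (5,000/well) were exposed to a 7-point, 3.16-fold compound dilution series for 48 hours at 37° C, in triplicate. Lysates were read by HTRF with anti-SMN d2/kryptate at 665/620 nm. Blank-corrected signal was expressed as fold over DMSO vehicle, giving the EC1.5x and the maximum fold increase.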

Molecule `Cc1csc(-c2cc(=O)c3cc(N4CCNCC4)ccc3o2)n1` [Cpd 76, 2-(4-methyl-1,3-thiazol-2-yl)-6-(piperazin-1-yl)-4H-chromen-4-one] has an EC (1.5-fold) [1] of 0.3 to 1 µM, a maximal fold induction (Smn protein) of 1.5 to 1.65 and an EC (1.5-fold) (Smn protein) of 1 to 3 µM. The melting point was 179 to 182 °C.

Work on `C[C@H]1CN(c2ccc3oc(-c4cccc(F)c4)cc(=O)c3c2)CCN1` [Cpd 77, 2-(3-fluorophenyl)-6-[(3S)-3-methylpiperazin-1-yl]-4H-chromen-4-one] yielded an EC (1.5-fold) [1] of 0.1 to 0.3 µM, a maximal fold induction (Smn protein) of 1.5 to 1.65 and an EC (1.5-fold) (Smn protein) of 0.3 to 1 µM. For the same molecule, the melting point was 170 to 172 °C.

`C[C@H]1CN(c2ccc3oc(-c4cccc(C(F)(F)F)c4)cc(=O)c3c2)CCN1` [Cpd 78, 6-[(3S)-3-methylpiperazin-1-yl]-2-[3-(trifluoromethyl)phenyl]-4H-chromen-4-one] gave an EC (1.5-fold) [1] of no more than 0.1 µM, a maximal fold induction (Smn protein) greater than 1.65 and an EC (1.5-fold) (Smn protein) of no more than 0.3 µM. For the same molecule, the melting point was 150 to 152 °C.

Molecule `O=c1cc(-c2cc(F)cc(F)c2)oc2ccc(N3CCNCC3)cc12` [Cpd 79, 2-(3,5-difluorophenyl)-6-(piperazin-1-yl)-4H-chromen-4-one] has an EC (1.5-fold) [1] of no more than 0.1 µM, a maximal fold induction (Smn protein) of 1.35 to 1.5 and an EC (1.5-fold) (Smn protein) of 3 to 10 µM. For the same molecule, the melting point was 180 to 190 °C.

`C[C@H]1CN(c2ccc3oc(-c4cc(F)cc(F)c4)cc(=O)c3c2)CCN1` [Cpd 80, 2-(3,5-difluorophenyl)-6-[(3S)-3-methylpiperazin-1-yl]-4H-chromen-4-one] showed an EC (1.5-fold) [1] of no more than 0.1 µM, a maximal fold induction (Smn protein) of 1.5 to 1.65 and an EC (1.5-fold) (Smn protein) of 0.3 to 1 µM. It also gave a melting point of 175 to 178 °C.
